In PMC8694022, “Molecular Docking-Based Screening for Novel Inhibitors of the Human Immunodeficiency Virus Type 1 Protease that Effectively Reduce the Viral Replication in Human Cells” (Journal of AIDS & clinical research, 2021):

Columns and labels:
HIV-1 PR subtype A = biological target: T1, HIV-1 PR subtype A (Human immunodeficiency virus type 1 group M subtype A, UniProt P24740); assay: In vitro PR inhibition assay, subtype A; format: biochemical; parameters: key: [+] or [−] indicating PR inhibition or no inhibition, respectively; [+] or [−] indicating PR inhibition or no inhibition, respectively; settings: compound at 80 μM, 37 °C
T1 construct: HIV type 1 (HIV-1) PR is a homodimeric enzyme of 99 amino acids; made in house
Method: (§1) The compounds were obtained from the NCI/DTP and solubilized in DMSO (Sigma) for use in HIV-1 PR inhibition assays. Cloning, expression, and purification procedures of HIV-1 PRs obtained from […] samples have been previously described elsewhere. For detailed information of mutations harbored in the multi PI-resistant HIV-1PR as compared to the PI-sensitive PR, full amino acid sequences is given in supplementary materials (Figure S1). HIV-1 PRs subtype variants were assayed kinetically at 80 μM for inhibitory activity at 37 °C using selected compounds as previously described.
(§2) We explored the hypothesis that compounds selected in silico for binding to the hinge region of PR are effective as inhibitors of HIV-1 replication, including multi-PI resistant viruses, in human cells. Our of 139,739 compounds, the top 40 highest-scoring compounds targeting the structural pockets in the hinge of the PR (Figure S1) were obtained from the NCI/DTP for use in HIV PR inhibition assays. Compounds were initially tested in vitro at 80 μM to screen for inhibitory activity against PR subtypes A, B or C. Compounds inhibiting at least one subtype of the PR were considered as candidate compounds for further experiments.

HIV-1 PR subtype B = biological target: T2, HIV-1 PR subtype B (Human immunodeficiency virus type 1 group M subtype B, UniProt P04585); assay: In vitro PR inhibition assay, subtype B; format: biochemical; parameters: key: [+] or [−] indicating PR inhibition or no inhibition, respectively; [+] or [−] indicating PR inhibition or no inhibition, respectively; settings: compound at 80 μM, 37 °C
T2 construct: HIV type 1 (HIV-1) PR is a homodimeric enzyme of 99 amino acids; made in house
Method: as §1, §2

HIV-1 PR subtype C = biological target: T3, HIV-1 PR subtype C (Human immunodeficiency virus type 1 group M subtype C, UniProt Q75002); assay: In vitro PR inhibition assay, subtype C; format: biochemical; parameters: key: [+] or [−] indicating PR inhibition or no inhibition, respectively; [+] or [−] indicating PR inhibition or no inhibition, respectively; settings: compound at 80 μM, 37 °C
T3 construct: HIV type 1 (HIV-1) PR is a homodimeric enzyme of 99 amino acids; made in house
Method: as §1, §2

TZM-bl cells = assay: Cell viability assay (CellTiter 96 AQueous) in TZM-bl cells; format: cell-based, human
Method: (§3) Viability in presence of compounds was measured at day 4 or 7, TZM-bl cells or PBMCs, using CellTiter 96 AQueous one solution cell proliferation assay (Promega) following manufacturer instructions. Toxicity of compounds was defined as a concentration that produced more than 10% decline in viability of TZM-bl cells or PBMCs were viable at days 4 or 7 of exposure, respectively, compared with DMSO-treated controls.

PBMCs = assay: Cell viability assay (CellTiter 96 AQueous) in PBMCs; format: cell-based, human; settings: 200 μM, day 7
Method: as §3

HIV-1AD [1] = assay: Anti-viral activity in TZM-bl cells, PI-sensitive HIV-1AD (luciferase); format: cell-based
Method: (§4) Anti-viral activity was evaluated ex vivo by adding the highest non-toxic concentration of compound or 25uM RTV (Sigma) solubilized in DMSO on the day of infection by PI-sensitive (HIV-1AD) or multi (RTV and IDV) PI-resistant (HIV-1AD02) HIV-1 variants at 25 or 45 TCID50 per ml for PBMCs or TZM-bl cells, respectively. Replication was determined on post-infection day 7 in PBMC by measuring supernatant p24 antigen levels (Perkin-Elmer), or day 4 in TZM-bl cells by measuring luciferase activity using the luciferase assay system (Promega, Madison, WI) and the microplate luminometer Monolight 3096 (BD Biosciences, San Jose, CA). Inhibitory concentration (IC)50 was calculated based on anti-viral activity in TZM-bl cells with a nonlinear regression analysis (GraphPad Prism 6 Software). Reduction of viral replication by more than 50% was considered successful anti-viral activity. Combinatorial effect of drug with RTV was tested at IC50, and higher or lower concentrations than IC50.

HIV-1AD02 [2] = assay: Anti-viral activity in TZM-bl cells, multi PI-resistant HIV-1AD02 (luciferase); format: cell-based
Method: as §4

HIV-1AD [3] = assay: Anti-viral activity alone or combined with 25 µM RTV, relative to 25 µM RTV, HIV-1AD; format: cell-based
Method: as §4
(§5) Combinatorial effect of drug was tested combining 25 μM RTV and higher or lower concentrations than IC50 of lead compounds. Combinations of compounds 18, 22, 27, 32 or 35 with 25 μM RTV were non-toxic in TZM-bl cells. Combination with RTV increased antiviral activity of all compounds against both PI-sensitive and PI-resistant HIV-1 variants (Figure 2).
(§6) Table S2. Fold change of compounds (18, 22, 27, 32 or 35) alone or in combination with 25 µM RTV compared to 25 µM
(§7) RTV. P values are reported in parenthesis with Bonferroni correction with significance p<0.0055; fold change >1 indicates […]
(§8) are highlighted in yellow; (-) not performed. (1) Anti-viral activity against HIV-1; (2) Compounds identification number.
(§9) Fold change of compounds compared to 25 µM RTV as reference […]

HIV-1AD02 [4] = assay: Anti-viral activity alone or combined with 25 µM RTV, relative to 25 µM RTV, HIV-1AD02; format: cell-based
Method: as §4, §5, §6, §7, §8, §9

[5] = highest non-toxic concentration, day 4 luciferase

T3 sequence (Q75002 493-591): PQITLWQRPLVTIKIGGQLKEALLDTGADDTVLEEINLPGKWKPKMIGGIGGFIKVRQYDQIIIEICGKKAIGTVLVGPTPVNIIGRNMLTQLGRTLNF
T1 sequence (P24740 482-580): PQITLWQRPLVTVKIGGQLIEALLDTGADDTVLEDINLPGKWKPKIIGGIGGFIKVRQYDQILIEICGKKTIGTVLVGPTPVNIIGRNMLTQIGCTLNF

SMILES: Nc1nc(N)c(N=Nc2ccc(C(=O)O)c(O)c2)c(N)n1 [Compound 18]
- Inhibition of PR subtype A (HIV-1 PR subtype A): +
- Inhibition of PR subtype B (HIV-1 PR subtype B): +
- Inhibition of PR subtype C (HIV-1 PR subtype C): +
- toxicity (more than 10% decline in viability) (TZM-bl cells; 200 μM, day 4): non-toxic
- toxicity of combination with 25 μM RTV (TZM-bl cells; compound combined with 25 μM RTV): non-toxic
- reduction of cell viability (PBMCs): 28%
- IC50 (HIV-1AD [1]; PI-sensitive variant): 62.7 µM
- reduction of replication of HIV-1AD (HIV-1AD [1]; [5]): more than 80%
- reduction of replication of HIV-1AD02 (HIV-1AD02 [2]; [5]): more than 80%
- IC50 (HIV-1AD02 [2]; multi PI-resistant variant): 68.5 µM
- Fold change compared to 25 µM RTV (HIV-1AD [3]; compound 25 µM with 25 µM RTV): 0.54 fold
- Fold change compared to 25 µM RTV (HIV-1AD [3]; compound 50 µM with 25 µM RTV): 0.32 fold
- Fold change compared to 25 µM RTV (HIV-1AD [3]; compound 100 µM with 25 µM RTV): 0.40 fold
- Fold change compared to 25 µM RTV (HIV-1AD [3]; compound alone, 25 µM): 1.12 fold
- Fold change compared to 25 µM RTV (HIV-1AD [3]; compound alone, 50 µM): 1.13 fold
- Fold change compared to 25 µM RTV (HIV-1AD [3]; compound alone, 100 uM): 0.87 fold
- Fold change compared to 25 µM RTV (HIV-1AD02 [4]; HIV-1AD02, compound 25 µM with 25 µM RTV): 0.75 fold
- Fold change compared to 25 µM RTV (HIV-1AD02 [4]; HIV-1AD02, compound 50 µM with 25 µM RTV): 0.60 fold
- Fold change compared to 25 µM RTV (HIV-1AD02 [4]; HIV-1AD02, compound 100 µM with 25 µM RTV): 0.53 fold
- Fold change compared to 25 µM RTV (HIV-1AD02 [4]; HIV-1AD02, compound alone, 25 µM): 3.42 fold
- Fold change compared to 25 µM RTV (HIV-1AD02 [4]; HIV-1AD02, compound alone, 50 µM): 3.24 fold
- Fold change compared to 25 µM RTV (HIV-1AD02 [4]; HIV-1AD02, compound alone, 100 uM): 2.41 fold
